In patent US10343992B2, “1-cyano-pyrrolidine compounds as USP30 inhibitors” (MISSION THERAPEUTICS LIMITED, priority 2015, dated 2019) one finds IC50 data, which are given here for 35 compounds.

The structures appear in SMILES notation. A value given as a limit tells only on which side of the number the result lay.

By IC50 is commonly meant the concentration at which inhibition is half-maximal.

USP30, sequence (Q70CQ3 57-517): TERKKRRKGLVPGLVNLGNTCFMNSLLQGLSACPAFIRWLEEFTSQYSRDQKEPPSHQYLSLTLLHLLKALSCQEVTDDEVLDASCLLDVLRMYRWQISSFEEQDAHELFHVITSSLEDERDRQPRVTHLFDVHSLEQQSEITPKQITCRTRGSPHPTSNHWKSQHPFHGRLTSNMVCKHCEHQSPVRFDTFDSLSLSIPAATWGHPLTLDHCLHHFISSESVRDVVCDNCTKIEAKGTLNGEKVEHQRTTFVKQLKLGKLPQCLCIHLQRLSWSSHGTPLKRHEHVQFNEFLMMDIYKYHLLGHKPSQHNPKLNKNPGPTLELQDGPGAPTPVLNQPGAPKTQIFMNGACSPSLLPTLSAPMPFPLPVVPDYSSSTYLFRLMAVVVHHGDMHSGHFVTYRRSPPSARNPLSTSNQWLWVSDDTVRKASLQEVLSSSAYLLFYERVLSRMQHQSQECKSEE

This assay concerns the target USP30 (Homo sapiens (Human), UniProt Q70CQ3). Nature of the assay: USP30 biochemical FP or FI IC50 assay. The conditions noted are these: read-out: IC50 range. Here is the method:
USP30 Biochemical IC50 Assay
Dilution plates were prepared at 21 times the final concentration (2100 μM for a final concentration of 100 μM) in 50% DMSO in a 96-well polypropylene V-bottom plate (Greiner #651201). A typical 8-point dilution series would be 100, 30, 10, 3, 1, 0.3, 0.1, 0.03 μM final. Reactions were performed in duplicate in black 384 well plates (small volume, Greiner 784076) in a final reaction volume of 21 μl. Either 1 μl of 50% DMSO or diluted compound was added to the plate. USP30 was diluted in reaction buffer (40 mM Tris, pH 7.5, 0.005% Tween 20, 0.5 mg/ml BSA, 5 mM—beta-mercaptoethanol) to the equivalent of 0.05 μl/well and 10 μl of diluted USP30 was added to the compound. Enzyme and compound were incubated for 30 min at room temp. Reactions were initiated by the addition of 50 nM of TAMRA labelled peptide linked to ubiquitin via an iso-peptide bond as fluorescence polarisation substrate. Reactions were read immediately after addition of substrate and following a 2 hr incubation at room temperature. Readings were performed on a Pherastar Plus (BMG Labtech). λ Excitation 540 nm; λ Emission 590 nm.
USP30 Biochemical Fluorescence Intensity IC50 Assay
Dilution plates were prepared at 21 times the final concentration (2100 μM for a final concentration of 100 μM) in 50% DMSO in a 96-well polypropylene V-bottom plate (Greiner #651201). A typical 8-point dilution series would be 100, 30, 10, 3, 1, 0.3, 0.1, 0.03 μM final. Reactions were performed in duplicate in black 384 well plates (small volume, Greiner 784076) in a final reaction volume of 21 μl.
Either 1 μl of 50% DMSO or diluted compound was added to the plate. USP30 was diluted in reaction buffer (40 mM Tris, pH 7.5, 0.005% Tween 20, 0.5 mg/ml BSA, 5 mM—beta-mercaptoethanol) to the equivalent of 0.001 μl/well and 10 μl of diluted USP30 was added to the compound. Enzyme and compound were incubated for 30 min at room temp. Reactions were initiated by the addition of Ubiquitin-Rhodamine 110 (U-555; Boston Biochem) at a final concentration of 100 nM. Reactions were read immediately after addition of substrate and following a 2 h incubation at room temperature. Readings were performed on a Pherastar Plus (BMG Labtech). λ Excitation 487 nm; λ Emission 535 nm.
For `N#CN1CC[C@@H](NC(=O)c2cc(-c3ccccn3)no2)C1` [Example 66, (R)-N-(1-cyanopyrrolidin-3-yl)-3-(pyridin-2-yl)isoxazole-5-carboxamide], the IC50 lay in the range of 100 to 1000 nM.
As to `N#CN1CC[C@@H](NC(=O)c2cc(-c3ccccc3)cnn2)C1` [Example 67, (R)—N-(1-cyanopyrrolidin-3-yl)-5-phenylpyridazine-3-carboxamide], the half-maximal inhibitory concentration (IC50) was 100 to 1000 nM.
Then `CN(C(=O)c1ccc(-c2ccccc2)cc1)C1CCN(C#N)C1` (centres unmarked) [Example 68, N-(1-cyanopyrrolidin-3-yl)-N-methyl-[1,1′-biphenyl]-4-carboxamide], with 100 to 1000 nM; and `C[C@H]1CN(C#N)C[C@@H]1NC(=O)c1ncc(-c2ccccc2)s1` [Example 69, N-((3R,4S)-1-cyano-4-methylpyrrolidin-3-yl)-5-phenylthiazole-2-carboxamide], with 1000 to 10000 nM; and `C[C@@H]1CN(C#N)C[C@H]1NC(=O)c1ncc(-c2ccccc2)s1` [Example 70, N-((3S,4R)-1-cyano-4-methylpyrrolidin-3-yl)-5-phenylthiazole-2-carboxamide], with < 100 nM.
Then `C[C@H]1CN(C#N)C[C@@H]1NC(=O)c1cnc(-c2ccccc2)s1` [Example 71, N-((3R,4S)-1-cyano-4-methylpyrrolidin-3-yl)-2-phenylthiazole-5-carboxamide], with 100 to 1000 nM; and `C[C@@H]1CN(C#N)C[C@H]1NC(=O)c1cnc(-c2ccccc2)s1` [Example 72, N-((3S,4R)-1-cyano-4-methylpyrrolidin-3-yl)-2-phenylthiazole-5-carboxamide], with < 100 nM; and `N#CN1CC[C@@H](NC(=O)c2ccnc(N3Cc4ccccc4C3)c2)C1` [Example 73, (R)—N-(1-cyanopyrrolidin-3-yl)-2-(isoindolin-2-yl)isonicotinamide], with 100 to 1000 nM.
Then `N#CN1CC[C@@H](NC(=O)c2ccnc(N3CCc4ccccc4C3)c2)C1` [Example 74, (R)—N-(1-cyanopyrrolidin-3-yl)-2-(3,4-dihydroisoquinolin-2(1H)-yl)isonicotinamide], with 100 to 1000 nM.
Take `Cc1cn(-c2ccc(C(=O)N[C@@H]3CCN(C#N)C3)c(F)c2)cn1` [Example 75, (R)—N-(1-cyanopyrrolidin-3-yl)-2-fluoro-4-(4-methyl-1H-imidazol-1-yl)benzamide]: the IC50 lay in the range of 100 to 1000 nM.
To `Cn1cc(-c2ccc(C(=O)N[C@@H]3CCN(C#N)C3)cc2F)cn1` [Example 76, (R)-N-(1-cyanopyrrolidin-3-yl)-3-fluoro-4-(1-methyl-1H-pyrazol-4-yl)benzamide] belongs < 100 nM.
For the compound `Cn1cc(-c2ccc(C(=O)N[C@@H]3CCN(C#N)C3)c(F)c2)cn1` [Example 77, (R)-N-(1-cyanopyrrolidin-3-yl)-2-fluoro-4-(1-methyl-1H-pyrazol-4-yl)benzamide], the IC50 was < 100 nM.
Then `Cn1cc(-c2cc(F)c(C(=O)N[C@@H]3CCN(C#N)C3)cc2F)cn1` [Example 78, (R)-N-(1-cyanopyrrolidin-3-yl)-2,5-difluoro-4-(1-methyl-1H-pyrazol-4-yl)benzamide], with < 100 nM.
Turning to `Cc1nn(C)cc1-c1ccc(C(=O)N[C@@H]2CCN(C#N)C2)cc1F` [Example 79, (R)-N-(1-cyanopyrrolidin-3-yl)-4-(1,3-dimethyl-1H-pyrazol-4-yl)-3-fluorobenzamide], the concentration for half-maximal inhibition (IC50) was < 100 nM.
For `Cc1nn(C)cc1-c1ccc(C(=O)N[C@@H]2CCN(C#N)C2)c(F)c1` [Example 80, (R)-N-(1-cyanopyrrolidin-3-yl)-4-(1,3-dimethyl-1H-pyrazol-4-yl)-2-fluorobenzamide], the IC50 was < 100 nM.
To `CCn1cc(-c2ccc(C(=O)N[C@@H]3CCN(C#N)C3)c(F)c2)cn1` [Example 81, (R)-N-(1-cyanopyrrolidin-3-yl)-4-(1-ethyl-1H-pyrazol-4-yl)-2-fluorobenzamide] belongs < 100 nM; to `COCCn1cc(-c2ccc(C(=O)N[C@@H]3CCN(C#N)C3)c(F)c2)cn1` [Example 82, (R)-N-(1-cyanopyrrolidin-3-yl)-2-fluoro-4-(1-(2-methoxyethyl)-1H-pyrazol-4-yl)benzamide], 100 to 1000 nM; to `Cn1cc(-c2ccc3nc(C(=O)N[C@@H]4CCN(C#N)C4)[nH]c3c2)cn1` [Example 83, (R)-N-(1-cyanopyrrolidin-3-yl)-6-(1-methyl-1H-pyrazol-4-yl)-1H-benzo[d]imidazole-2-carboxamide], 100 to 1000 nM.
To `Cn1cc(-c2ccc3cc(C(=O)N[C@@H]4CCN(C#N)C4)[nH]c3c2)cn1` [Example 84, (R)-N-(1-cyanopyrrolidin-3-yl)-6-(1-methyl-1H-pyrazol-4-yl)-1H-indole-2-carboxamide] belongs 100 to 1000 nM.
As for `N#CN1CC[C@@H](NC(=O)c2ccc(-c3cn[nH]c3C(F)(F)F)cc2F)C1` [Example 85, (R)-N-(1-cyanopyrrolidin-3-yl)-2-fluoro-4-(5-(trifluoromethyl)-1H-pyrazol-4-yl)benzamide], the IC50 was < 100 nM.
`Cn1ncc2cc(-c3ccc(C(=O)N[C@@H]4CCN(C#N)C4)c(F)c3)ccc21` [Example 86, (R)-N-(1-cyanopyrrolidin-3-yl)-2-fluoro-4-(1-methyl-1H-indazol-5-yl)benzamide]: the IC50 was < 100 nM.
For `CN(C(=O)c1ccc(-c2cnn(C)c2)c(F)c1)[C@@H]1CCN(C#N)C1` [Example 87, (R)-N-(1-cyanopyrrolidin-3-yl)-3-fluoro-N-methyl-4-(1-methyl-1H-pyrazol-4-yl)benzamide], the IC50 was 100 to 1000 nM.
Consider `CN(C(=O)c1nc2ccc(-c3cnn(C)c3)cc2[nH]1)[C@@H]1CCN(C#N)C1` [Example 88, (R)-N-(1-cyanopyrrolidin-3-yl)-N-methyl-6-(1-methyl-1H-pyrazol-4-yl)-1H-benzo[d]imidazole-2-carboxamide], for which the concentration for half-maximal inhibition (IC50) lay within 100 to 1000 nM.
As for `CN(C(=O)N1CC(Oc2ccccc2)C1)[C@@H]1CCN(C#N)C1` [Example 89, (R)—N-(1-cyanopyrrolidin-3-yl)-N-methyl-3-phenoxyazetidine-1-carboxamide], the IC50 was in the range of 100 to 1000 nM.
As for `N#CN1C[C@H]2CCN(C(=O)Nc3ccc(C(F)(F)F)cc3F)[C@H]2C1` [Example 90, (3aR,6aR)-5-cyano-N-(2-fluoro-4-(trifluoromethyl)phenyl)hexahydropyrrolo[3,4-b]pyrrole-1(2H)-carboxamide], the IC50 was < 100 nM.
Then `N#CN1CC[C@@H](NC(=O)c2ccc(Nc3ncccn3)cc2F)C1` [Example 91, (R)—N-(1-cyanopyrrolidin-3-yl)-2-fluoro-4-(pyrimidin-2-ylamino)benzamide], with < 100 nM; and `Cn1cc(-c2ccc(C(=O)NC3(C)CCN(C#N)C3)c(F)c2)cn1` (centres unmarked) [Example 94, N-(1-cyano-3-methylpyrrolidin-3-yl)-2-fluoro-4-(1-methyl-1H-pyrazol-4-yl)benzamide], with 1000 to 10000 nM; and `COc1ccc(-c2cc(C(=O)N[C@@H]3CCN(C#N)C3)n[nH]2)cc1` [Example 95, (R)-N-(1-cyanopyrrolidin-3-yl)-5-(4-methoxyphenyl)-1H-pyrazole-3-carboxamide], with < 100 nM.
`N#CN1CC[C@@H](NC(=O)c2cc(-c3ccccn3)[nH]n2)C1` [Example 96, (R)-N-(1-cyanopyrrolidin-3-yl)-5-(pyridin-2-yl)-1H-pyrazole-3-carboxamide]: the concentration for half-maximal inhibition (IC50) was 100 to 1000 nM.
Take `COc1ccccc1-c1cc(C(=O)N[C@@H]2CCN(C#N)C2)n[nH]1` [Example 97, (R)-N-(1-cyanopyrrolidin-3-yl)-5-(2-methoxyphenyl)-1H-pyrazole-3-carboxamide]: the 50% inhibitory concentration (IC50) was < 100 nM.
For `N#CN1CC[C@@H](NC(=O)c2cc(-c3ccccc3F)[nH]n2)C1` [Example 98, (R)-N-(1-cyanopyrrolidin-3-yl)-5-(2-fluorophenyl)-1H-pyrazole-3-carboxamide], the concentration for half-maximal inhibition (IC50) is < 100 nM.
Then `N#CN1CC[C@@H](NC(=O)c2ccc(N3CCOCC3)nc2)C1` [Example 99, (R)-N-(1-cyanopyrrolidin-3-yl)-6-morpholinonicotinamide], with 100 to 1000 nM.
Then `COc1ccc(-c2cc(C(=O)N[C@@H]3CCN(C#N)C3)on2)cc1` [Example 100, (R)-N-(1-cyanopyrrolidin-3-yl)-3-(4-methoxyphenyl)isoxazole-5-carboxamide], with < 100 nM.
As to `N#CN1CC[C@@H](NC(=O)c2n[nH]c3ccccc23)C1` [Example 101, (R)-N-(1-cyanopyrrolidin-3-yl)-1H-indazole-3-carboxamide], the IC50 fell in the range of 100 to 1000 nM.
To `N#CN1CC[C@@H](NC(=O)c2cc(-c3ccccc3)[nH]n2)C1` [Example 102, (R)-N-(1-cyanopyrrolidin-3-yl)-phenyl-1H-pyrazole-3-carboxamide] belongs < 100 nM.
